Experimental data from PMC10605370 (Biomolecules, 2023).
Blank lines part the entries; values can stand above or below the molecule they belong to.

Tests used:
[1] = target: phosphorylation-null (PO4-null) rat D2 dopamine receptor, long isoform, fused to Rluc8 (rat) (UniProt P61169); test: FRET or BRET; GRK2 recruitment BRET in live HEK293 cells transfected with D2R-Rluc8 (donor) and GRK2-rGFP (acceptor), with or without compound 101; DPBS with 200 µM sodium metabisulphite, room temperature, 2 µM Prolume Purple; dopamine for 5 min
phosphorylation-null (PO4-null) rat D2 dopamine receptor, long isoform, fused to Rluc8 (rat), sequence (P61169 whole entry, the tested form may be a part, canonical isoform): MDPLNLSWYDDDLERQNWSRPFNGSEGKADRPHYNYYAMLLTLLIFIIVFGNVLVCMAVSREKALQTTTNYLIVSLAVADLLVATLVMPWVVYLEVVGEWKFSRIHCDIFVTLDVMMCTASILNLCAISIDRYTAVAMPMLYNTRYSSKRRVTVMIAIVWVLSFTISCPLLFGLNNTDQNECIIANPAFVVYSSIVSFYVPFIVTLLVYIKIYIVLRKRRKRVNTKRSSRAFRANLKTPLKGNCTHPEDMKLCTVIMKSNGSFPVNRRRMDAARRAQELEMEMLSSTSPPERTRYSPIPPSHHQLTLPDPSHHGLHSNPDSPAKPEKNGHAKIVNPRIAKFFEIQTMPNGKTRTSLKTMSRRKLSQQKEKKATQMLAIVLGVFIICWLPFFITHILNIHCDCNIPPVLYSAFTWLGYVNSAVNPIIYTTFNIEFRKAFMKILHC

[2] = target: phosphorylation-null (PO4-null) rat D2 dopamine receptor, long isoform, fused to Rluc8 (rat) (UniProt P61169)
Human D2RL [3] = target: T1, Human D2RL (Homo sapiens, UniProt P14416); test: β-arrestin2 recruitment BRET assay; format: cell-based; settings: dose-dependent; maximally effective concentrations (10–100 µM)
T1 sequence (P14416 whole entry): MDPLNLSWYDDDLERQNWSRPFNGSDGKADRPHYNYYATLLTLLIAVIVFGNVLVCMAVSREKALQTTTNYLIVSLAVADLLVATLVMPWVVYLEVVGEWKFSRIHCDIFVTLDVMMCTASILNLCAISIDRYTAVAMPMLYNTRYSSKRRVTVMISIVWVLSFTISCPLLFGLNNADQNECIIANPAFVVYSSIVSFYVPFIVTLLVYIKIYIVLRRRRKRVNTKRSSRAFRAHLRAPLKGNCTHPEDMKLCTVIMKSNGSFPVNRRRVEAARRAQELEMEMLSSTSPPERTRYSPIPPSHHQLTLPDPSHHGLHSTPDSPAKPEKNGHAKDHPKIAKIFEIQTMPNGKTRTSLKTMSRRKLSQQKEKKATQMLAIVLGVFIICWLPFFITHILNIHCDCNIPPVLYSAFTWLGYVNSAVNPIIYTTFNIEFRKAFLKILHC

D2R–GRK2 interactions = test system: D2R–GRK2 interactions; parameters: method as in Pack et al., 2018 [21]; settings: similar BRET assay; ref Pack et al., 2018 [21]; cited from earlier work
Human D2RL [4] = target: T1, Human D2RL; test: GRK2-GFP recruitment BRET assay (D2R–GRK2 interactions); format: cell-based; parameters: expressed in transfected cells; host or cells: HEK293 (parental or GRK knockout lines); settings: dose-dependent (Figure 3C)
Human D2RL [5] = target: T1, Human D2RL; test: Go heterotrimer activation BRET assay; format: cell-based; parameters: expressed in transfected cells; host or cells: HEK293 (parental or GRK knockout lines); settings: Cmpd101 treatment of HEK293 cells
Description: HEK293 cells were transiently transfected with the Gαo1-Rluc8 (35 mm plate: 0.1 μg; 100 mm plate: 0.5 μg), Gβ1 (35 mm plate: 0.9 μg; 100 mm plate: 4.5 μg), and Gγ2-mVenus (35 mm plate: 1 μg; 100 mm plate: 5 μg) constructs and the indicated untagged D2R construct (35 mm plate: 1 μg; 100 mm plate: 5 μg). […] Cells were then plated in 96-well white solid bottom plates (Greiner, Monroe, NC, USA) and incubated at room temperature for 45 min.

PO4-null D2R = PO4-null D2R (Rattus norvegicus, UniProt P61169); test: β-arrestin2 recruitment BRET assay, PO4-null D2R; format: cell-based; settings: dose-dependent (Figure 4D)
PO4-null D2R, sequence (P61169 whole entry, canonical isoform): as the sequence (P61169 whole entry, the tested form may be a part, canonical isoform) above

other GRK isoforms = settings: selectively inhibits the GRK2/3 subfamily; cited from earlier work
Human D2RL [6] = target: T1, Human D2RL; test: LYN BRET receptor internalization assay; format: cell-based; parameters: expressed in transfected cells; host or cells: HEK293 (parental or GRK knockout lines); settings: dose-dependent; maximally effective concentration of 100 µM
Description: HEK293 cells were transiently transfected with the indicated D2R-Rluc8 (35 mm plate: 0.1 μg; 100 mm plate: 0.5 μg) and LYN-rGFP (35 mm plate: 1 μg; 100 mm plate: 5 μg) constructs and the indicated GRK construct (35 mm plate: 1 μg; 100 mm plate: 5 μg) or pcDNA control.

GRK2-rGFP, sequence (P25098 whole entry): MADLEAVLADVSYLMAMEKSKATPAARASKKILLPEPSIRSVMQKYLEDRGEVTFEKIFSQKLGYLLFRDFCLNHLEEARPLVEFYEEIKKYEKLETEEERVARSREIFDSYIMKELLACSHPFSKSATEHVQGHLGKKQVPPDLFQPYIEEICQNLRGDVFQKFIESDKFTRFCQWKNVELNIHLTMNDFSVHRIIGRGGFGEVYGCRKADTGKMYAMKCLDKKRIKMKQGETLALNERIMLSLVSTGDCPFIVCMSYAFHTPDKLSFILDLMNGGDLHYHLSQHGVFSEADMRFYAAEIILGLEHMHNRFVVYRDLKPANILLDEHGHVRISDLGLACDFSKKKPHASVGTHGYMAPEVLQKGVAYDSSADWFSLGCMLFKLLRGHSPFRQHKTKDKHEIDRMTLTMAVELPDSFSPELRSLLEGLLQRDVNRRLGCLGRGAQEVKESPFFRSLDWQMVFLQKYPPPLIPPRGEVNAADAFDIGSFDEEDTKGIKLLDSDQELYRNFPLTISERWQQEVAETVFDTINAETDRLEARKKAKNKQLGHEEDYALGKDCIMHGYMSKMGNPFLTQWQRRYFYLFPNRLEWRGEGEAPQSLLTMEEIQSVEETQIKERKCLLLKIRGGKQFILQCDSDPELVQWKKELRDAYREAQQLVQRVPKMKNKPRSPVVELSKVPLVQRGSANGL
β-arrestin2-mVenus, sequence (P32121 whole entry): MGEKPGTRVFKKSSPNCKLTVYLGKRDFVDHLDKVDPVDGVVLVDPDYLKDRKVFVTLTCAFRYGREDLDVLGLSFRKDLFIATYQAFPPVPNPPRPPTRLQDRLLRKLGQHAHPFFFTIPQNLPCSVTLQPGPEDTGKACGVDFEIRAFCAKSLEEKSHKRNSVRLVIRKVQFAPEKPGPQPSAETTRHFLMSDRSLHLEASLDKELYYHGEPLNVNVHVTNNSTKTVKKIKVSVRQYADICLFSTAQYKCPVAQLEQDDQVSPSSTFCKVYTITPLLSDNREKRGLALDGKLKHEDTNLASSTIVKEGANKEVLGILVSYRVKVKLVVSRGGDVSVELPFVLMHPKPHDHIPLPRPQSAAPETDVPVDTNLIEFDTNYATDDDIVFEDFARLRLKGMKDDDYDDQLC

Emax of dopamine-stimulated BRET (% of WT D2R) [1]: 102 % of WT D2R
Molecule: GRK2-rGFP (from UniProt P25098 1-689) (enzyme)

dopamine-stimulated D2R internalization in HEK293 cells (LYN BRET), Emax as a percentage of WT D2R (β-arrestin not transfected in this assay) [2]: 100 % of WT D2R
Molecule: β-arrestin2-mVenus (from UniProt P32121 1-409) (natural protein)

inhibition of dopamine-stimulated β-arrestin2 recruitment to the D2R (Human D2RL [3]): unable to completely inhibit
inhibition of GRK2–D2R interactions (Human D2RL [4]): unable to completely block
effect on D2R signaling through G proteins (Go activation BRET assay) (Human D2RL [5]): does not alter
decrease of β-arrestin2 recruitment to the phospho-null D2R (PO4-null D2R): did not completely eliminate
inhibition of dopamine-stimulated D2R internalization (Human D2RL [6]): completely block
Molecule: Cn1c(CNc2cccc(C(=O)NCc3ccccc3C(F)(F)F)c2)nnc1-c1ccncc1 [Cmpd101]
effect on D2R–GRK2 interactions (D2R–GRK2 interactions): no effect
affinity for other GRK isoforms (other GRK isoforms): lacks affinity
